Measured values as given in BindingDB's records for doi:10.1016/j.bmcl.2008.06.042 (Ariad Pharmaceuticals, 2008).
pIC50: −log10 of the molar value.

Biological target: FLT3 receptor tyrosine kinase (Homo sapiens) (UniProt P36888)
Experiment: Inhibition of Flt3

Chain of FLT3 receptor tyrosine kinase (Homo sapiens) (P36888 whole entry, looked up): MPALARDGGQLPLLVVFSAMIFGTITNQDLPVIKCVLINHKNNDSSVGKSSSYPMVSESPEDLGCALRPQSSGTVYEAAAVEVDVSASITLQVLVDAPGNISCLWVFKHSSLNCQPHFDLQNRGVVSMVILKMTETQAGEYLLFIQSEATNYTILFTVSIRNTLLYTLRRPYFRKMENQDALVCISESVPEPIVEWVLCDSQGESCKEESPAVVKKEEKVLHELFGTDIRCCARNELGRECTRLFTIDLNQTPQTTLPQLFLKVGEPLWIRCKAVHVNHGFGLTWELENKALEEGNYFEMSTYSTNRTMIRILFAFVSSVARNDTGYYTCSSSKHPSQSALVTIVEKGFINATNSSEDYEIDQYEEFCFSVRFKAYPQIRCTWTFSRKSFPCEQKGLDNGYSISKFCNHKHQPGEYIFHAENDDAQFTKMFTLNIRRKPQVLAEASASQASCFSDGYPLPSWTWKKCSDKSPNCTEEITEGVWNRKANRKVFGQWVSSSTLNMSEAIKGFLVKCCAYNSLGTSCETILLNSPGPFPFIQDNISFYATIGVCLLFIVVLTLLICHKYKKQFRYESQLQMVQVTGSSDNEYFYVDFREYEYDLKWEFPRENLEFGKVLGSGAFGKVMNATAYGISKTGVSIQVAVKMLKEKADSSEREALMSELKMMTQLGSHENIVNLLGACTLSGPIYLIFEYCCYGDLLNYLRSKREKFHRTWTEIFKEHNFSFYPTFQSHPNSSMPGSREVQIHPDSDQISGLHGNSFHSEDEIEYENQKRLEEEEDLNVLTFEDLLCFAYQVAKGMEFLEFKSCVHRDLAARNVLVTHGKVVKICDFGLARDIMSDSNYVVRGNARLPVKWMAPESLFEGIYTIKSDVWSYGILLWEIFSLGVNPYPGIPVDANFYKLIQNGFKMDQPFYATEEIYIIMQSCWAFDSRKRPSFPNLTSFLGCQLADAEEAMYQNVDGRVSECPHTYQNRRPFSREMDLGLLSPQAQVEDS

## Cc1cccc(C)c1/C=C/n1cnc2c(Nc3ccc(P(C)(C)=O)cc3)ncnc21 [AP24149]
  pIC50: < 6.00
